Experimental data: PMC7311426, “An amphipathic peptide with antibiotic activity against multidrug-resistant Gram-negative bacteria” (Nature Communications, 2020)
Values after ≈ are worked out from the molar mass of the structure shown. Residues, ends and D or L forms follow the SMILES beside them.

Tests used:
A. baumannii = experiment: microbe, parasite or virus in culture
Procedure: (§1) Antimicrobial activity of arenicin-3 and its analogs was tested against a panel of bacterial and yeast strains by in vitro broth microdilution (BMD) assay with minimum inhibitory concentration (MIC) determination. Strains were purchased from American Type Culture Collection (ATCC) or obtained from clinical collaborators (full strain profiles provided in Supplementary Data 3). All peptides were prepared in Ringer’s acetate solution, and subsequently diluted fresh in water for each independent assay.
(§2) Assays were performed in Mueller Hinton broth (MHB; BD, Cat. No. 211443) for bacteria, and yeast extract-peptone dextrose (YPD; Sigma-Aldrich, Y1500) for yeast. The concentrations of the peptides and comparator antibiotics/antifungals in the assay wells ranged from either 128 or 64 μg mL^−1, to 0.06 or 0.03 μg mL^−1 as a 12-point dose response plated as a 2-fold dilution series across the wells of the plate in duplicate for each independent biological replicate, using a final cell density of 5 × 10^5 CFU mL^−1 and 2.5 × 10^3 CFU mL^−1 for bacteria and yeast respectively. Final assay volumes were 100 μL per well with MICs determined visually following 18-20 h incubation at 37 °C for bacteria, 24 h incubation at 35 °C for Candida albicans, and 24 h incubation at 35 °C with resazurin addition (0.006%; Sigma-Aldrich, Cat # R7017) for a further 3 h for Cryptococcus neoformans, without shaking. Additional bacterial and yeast susceptibility assays were performed in Cation-Adjusted Mueller Hinton Broth (CAMHB; BD, Cat No. 212322) and Roswell Park Memorial Institute (RPMI) 1640 culture medium (Life Technologies Australia, Cat No. 21870092), respectively, as recommended by CLSI guidelines (M07 11th ed[36] and M27 4th ed[37]). […] Agarose MICs were determined in MHB with 1% agarose (Bioline molecular grade; Cat no: BIO-41025; high purity, high gel strength). All experiments were performed a minimum of six replicates (n ≥ 6).

C. albicans = experiment: microbe, parasite or virus in culture; conditions: 24 h
Procedure: as §1, §2

E. coli = experiment: microbe, parasite or virus in culture
Procedure: as §1, §2

K. pneumoniae = experiment: microbe, parasite or virus in culture
Procedure: as §1, §2

P. aeruginosa = experiment: microbe, parasite or virus in culture
Procedure: as §1, §2

S. aureus = experiment: microbe, parasite or virus in culture
Procedure: as §1, §2

E. coli ATCC 25922 = experiment: microbe, parasite or virus in culture; format: cell-based, Escherichia coli; conditions: ATCC 25922
Procedure: Assays were performed in Mueller Hinton broth (MHB; BD, Cat. No. 211443) for bacteria, and yeast extract-peptone dextrose (YPD; Sigma-Aldrich, Y1500) for yeast. The concentrations of the peptides and comparator antibiotics/antifungals in the assay wells ranged from either 128 or 64 μg mL^−1, to 0.06 or 0.03 μg mL^−1 as a 12-point dose response plated as a 2-fold dilution series across the wells of the plate in duplicate for each independent biological replicate, using a final cell density of 5 × 10^5 CFU mL^−1 and 2.5 × 10^3 CFU mL^−1 for bacteria and yeast respectively. Final assay volumes were 100 μL per well with MICs determined visually following 18-20 h incubation at 37 °C for bacteria, 24 h incubation at 35 °C for Candida albicans, and 24 h incubation at 35 °C with resazurin addition (0.006%; Sigma-Aldrich, Cat # R7017) for a further 3 h for Cryptococcus neoformans, without shaking. Additional bacterial and yeast susceptibility assays were performed in Cation-Adjusted Mueller Hinton Broth (CAMHB; BD, Cat No. 212322) and Roswell Park Memorial Institute (RPMI) 1640 culture medium (Life Technologies Australia, Cat No. 21870092), respectively, as recommended by CLSI guidelines (M07 11th ed[36] and M27 4th ed[37]). […] However, for yeast it was determined that the YPD media was more reliable and robust between repeats and therefore MICs in this media are reported. […] Agarose MICs were determined in MHB with 1% agarose (Bioline molecular grade; Cat no: BIO-41025; high purity, high gel strength). All experiments were performed a minimum of six replicates (n ≥ 6).

in vitro = conditions: human
Procedure: (§3) HEK-293 human embryonic kidney cells (ATCC CRL-1573), HepG2 liver hepatocellular carcinoma cells (ATCC HB-8065), and HK-2 human kidney proximal tubule cells (ATCC CRL-2190) cell lines were purchased from ATCC. Cytotoxicity of arenicin-3 variants was determined using the Alamar Blue (resazurin; Sigma-Aldrich, Cat # R7017), with 1% FBS for HK-2 and 10% FBS for HEK-293, and HepG2[40]. Cells were seeded as 2000 cells per well in black wall clear bottom 384-well plates (Corning®, Costar®, Cat # 3712). The cells were incubated for 24 h at 37 °C, 5% CO2. Then peptides were added into each cell containing well. After 24 h incubation, 5 μM resazurin were added per well and incubated at 37 °C for 2 h. Then the fluorescence intensity (FI) was read using a Polarstar® Omega plate reader with excitation/emission 560/590 and CC50 values were determined using Prism 8 following curve fitting and applying the following equation: Percentageviability = (FITEST-FINegative/FIUNTREATED-FINegative)×100.
(§4) Hemolytic activity was measured against isolated human erythrocytes from anonymously donated fresh human blood. Isolated erythrocytes were adjusted to 1 × 10^9 blood cells mL^−1 in phosphate-buffered saline (PBS, pH 7.4), added to the wells of NUNC polypropylene round-bottom 96-well plates (Sigma-Aldrich, Cat # P6866) then up to 300 μg mL^−1 of compound was added per well and incubated for 3 h at 37 °C. Following incubation, samples were centrifuged at 3000 rpm for 20 min, and the supernatants, 100 μL, were carefully collected for measurement. The degree of hemolysis in the samples was determined by measurement of the absorption of the supernatants at 540 nm using the Polarstar-Omega plate reader. 1% Triton-X100 was used as positive control for inducing 100% hemolysis. HC10 and HC50 values were determined using Prism 8 following curve fitting. The use of human blood (sourced from the Australian Red Cross Blood Service) for hemolysis assays was approved by the University of Queensland Institutional Human Research Ethics Committee, Approval Number 2014000031. All in vitro toxicity assays were performed for two independent biological replicates as an 8-point dose response of 3-fold dilution series in triplicate with the highest test concentration of 300 μg mL^−1.

[1] = system: HEK-293 human embryonic kidney cells; experiment: in vitro
Procedure: as §3, §4

[2] = system: HK-2 human kidney proximal tubule cells; experiment: in vitro
Procedure: as §3, §4

[3] = system: HepG2 liver hepatocellular carcinoma cells; experiment: in vitro
Procedure: as §3, §4

[4] = system: human erythrocytes (HRBC); format: cell-based; conditions: for Heamolysis HC10: red cells of human, 3 h

SMILES	BMD MIC (A. baumannii)	BMD MIC (C. albicans)	BMD MIC (E. coli)	BMD MIC (K. pneumoniae)	BMD MIC (P. aeruginosa)	BMD MIC (S. aureus)	MIC, MHB (E. coli ATCC 25922)	CC50 at 24 h (in vitro; HEK-293 cells)	CC50 at 24 h (in vitro; HK-2 cells)	CC50 at 24 h (in vitro; HepG2 cells)	CC50 HEK293, Mean [1]	CC50 HK2, Mean [2]	CC50 HepG2, Mean [3]	Heamolysis HC10, Mean [4]	CC50 HEK293 [1]	CC50 HK2 [2]	CC50 HepG2 [3]	Heamolysis HC10 [4]
CC(C)C[C@@H]1NC(=O)CNC(=O)[C@H](CC(N)=O)NC(=O)[C@H](CCCNC(=N)N)NC(=O)[C@H](CO)NC(=O)[C@H](C)NC(=O)[C@@H]2CSSC[C@H](NC(=O)[C@H](C(C)C)NC(=O)[C@H](CCCNC(=N)N)NC1=O)C(=O)N[C@@H](Cc1ccc(O)cc1)C(=O)N[C@@H](CCCNC(=N)N)C(=O)N[C@@H](CCCNC(=N)N)C(=O)N[C@H](C(=O)N[C@@H](CC(N)=O)C(=O)O)CSSC[C@H](NC(=O)[C@H](Cc1ccccc1)NC(=O)CN)C(=O)N[C@@H](Cc1c[nH]c3ccccc13)C(=O)N[C@@H](CCCNC(=N)N)C(=O)N[C@@H](C(C)C)C(=O)N2 [NZ17125] (HELM PEPTIDE1{G.F.C.W.R.V.C.A.S.R.N.G.L.R.V.C.Y.R.R.C.N}$PEPTIDE1,PEPTIDE1,3:R3-20:R3|PEPTIDE1,PEPTIDE1,7:R3-16:R3$$$V2.0)	1 µg/mL	64 µg/mL	0.125 µg/mL	0.25 µg/mL	0.25 µg/mL	64 µg/mL	0.125 µg/mL (≈ 0.0497 µM)	250 µg/mL (≈ 99.4 µM)	110 µg/mL (≈ 43.7 µM)	299 µg/mL (≈ 119 µM)	250 µg/mL (≈ 99.4 µM)	110 µg/mL (≈ 43.7 µM)	299 µg/mL (≈ 119 µM)	181 µg/mL				
CC(C)[C@@H]1NC(=O)CNC(=O)[C@H](CC(N)=O)NC(=O)[C@H](CCCNC(=N)N)NC(=O)[C@H](CCCNC(=N)N)NC(=O)[C@H](C)NC(=O)[C@@H]2CSSC[C@H](NC(=O)[C@H](C(C)C)NC(=O)[C@H](CCCNC(=N)N)NC1=O)C(=O)N[C@@H](Cc1ccc(O)cc1)C(=O)N[C@@H](CCCNC(=N)N)C(=O)N[C@@H](CCCNC(=N)N)C(=O)N[C@H](C(=O)N[C@@H](CC(N)=O)C(=O)O)CSSC[C@H](NC(=O)[C@H](Cc1ccccc1)NC(=O)CN)C(=O)N[C@@H](Cc1c[nH]c3ccccc13)C(=O)N[C@@H](Cc1c[nH]cn1)C(=O)N[C@@H](C(C)C)C(=O)N2 [NZ17224] (HELM PEPTIDE1{G.F.C.W.H.V.C.A.R.R.N.G.V.R.V.C.Y.R.R.C.N}$PEPTIDE1,PEPTIDE1,3:R3-20:R3|PEPTIDE1,PEPTIDE1,7:R3-16:R3$$$V2.0)	0.5 µg/mL	32 µg/mL	0.06 µg/mL	0.25 µg/mL	0.25 µg/mL	64 µg/mL	0.06 µg/mL (≈ 0.0235 µM)	> 300 µg/mL	> 250 µg/mL	> 300 µg/mL	>300 µg/mL	>250 µg/mL	>300 µg/mL	>300 µg/mL	>300 µg/mL	>255 µg/mL	>300 µg/mL	>300 µg/mL
CC(C)[C@@H]1NC(=O)CNC(=O)[C@H](CC(N)=O)NC(=O)[C@H](CCCNC(=N)N)NC(=O)[C@H](CCCCN)NC(=O)[C@H](C(C)C)NC(=O)[C@@H]2CSSC[C@H](NC(=O)[C@H](CO)NC(=O)[C@H](CCCNC(=N)N)NC1=O)C(=O)N[C@@H](Cc1ccc(O)cc1)C(=O)N[C@@H](CCCNC(=N)N)C(=O)N[C@@H](CCCNC(=N)N)C(=O)N[C@H](C(=O)N[C@@H](CC(N)=O)C(=O)O)CSSC[C@H](NC(=O)[C@H](Cc1ccccc1)NC(=O)CN)C(=O)N[C@@H](Cc1c[nH]c3ccccc13)C(=O)N[C@@H](Cc1ccc(O)cc1)C(=O)N[C@@H](C(C)C)C(=O)N2 [NZ17160] (HELM PEPTIDE1{G.F.C.W.Y.V.C.V.K.R.N.G.V.R.S.C.Y.R.R.C.N}$PEPTIDE1,PEPTIDE1,3:R3-20:R3|PEPTIDE1,PEPTIDE1,7:R3-16:R3$$$V2.0)	1 µg/mL	64 µg/mL	0.125 µg/mL	0.25 µg/mL	0.5 µg/mL	>64 µg/mL	0.125 µg/mL (≈ 0.0487 µM)	> 300 µg/mL	> 250 µg/mL	> 300 µg/mL	>300 µg/mL	>250 µg/mL	>300 µg/mL	>300 µg/mL	>300 µg/mL	>257 µg/mL	>300 µg/mL	>300 µg/mL
CC(C)[C@@H]1NC(=O)CNC(=O)[C@H](CC(N)=O)NC(=O)[C@H](CCCNC(=N)N)NC(=O)[C@H](Cc2ccc(O)cc2)NC(=O)[C@H](C(C)C)NC(=O)[C@@H]2CSSC[C@H](NC(=O)[C@H](C)NC(=O)[C@H](CCCNC(=N)N)NC1=O)C(=O)N[C@@H](Cc1ccc(O)cc1)C(=O)N[C@@H](CCCNC(=N)N)C(=O)N[C@@H](CCCNC(=N)N)C(=O)N[C@H](C(=O)N[C@@H](CC(N)=O)C(=O)O)CSSC[C@H](NC(=O)[C@H](Cc1ccccc1)NC(=O)CN)C(=O)N[C@@H](Cc1c[nH]c3ccccc13)C(=O)N[C@@H](CCCNC(=N)N)C(=O)N[C@@H](C)C(=O)N2 [NZ17228] (HELM PEPTIDE1{G.F.C.W.R.A.C.V.Y.R.N.G.V.R.A.C.Y.R.R.C.N}$PEPTIDE1,PEPTIDE1,3:R3-20:R3|PEPTIDE1,PEPTIDE1,7:R3-16:R3$$$V2.0)	1 µg/mL	64 µg/mL	0.125 µg/mL	0.25 µg/mL	0.5 µg/mL	64 µg/mL	0.125 µg/mL (≈ 0.049 µM)	> 300 µg/mL	> 250 µg/mL	> 300 µg/mL	>300 µg/mL	>250 µg/mL	>300 µg/mL	>300 µg/mL	>300 µg/mL	>255 µg/mL	>300 µg/mL	>300 µg/mL
